Measurements reported in patent US8173423B2, “Diagnosis and treatment of T-cell acute lymphoblastic leukemia” (VIB VZW, priority 2006, dated 2012).
Non-standard residues stand in square brackets, D forms with d. Residues, ends and D or L forms follow the SMILES beside them. *: point of attachment. Nle = CCCC[C@H](N)C(=O)O; Cbz = O=C(OCc1ccccc1)*

Tests used:
[1] = tested on: T-ALL cells; settings: Miele 2006; cited from earlier work
[2] = tested on: ALL-SIL cells; assay: Proliferation, viability and cell cycle of T-ALL cell line (viable cell count, FACS); assay type: cell-based, human; settings: for proliferation: proliferation period of 3 days
Procedure: (§1) DND-41, HSB-2, RPMI-8402, ALL-SIL, MOLT-4, LOUCY, P12-ICHIKAWA, CCRF-CEM (DSMZ, Braunschweig, Germany) were cultured in RPMI-1640 supplemented with 20% fetal calf serum. The number or percentage of viable cells was counted with a Vi-cell XR cell viability analyzer (Beckman Coulter, Fullerton, Calif.). For differentiation experiments, cells were cultured during a period of 6 days and electroporated on the first day and again on the 4th day with 50 nM siRNA. MYB stealth select siRNAs were purchased from Invitrogen (Carlsbad, Calif.). […] Electroporation with a stealth siRNA directed against ERBB4 (Invitrogen, Carlsbad, Calif.), a gene not expressed in these cell lines, served as a control. […] For inhibition of NOTCH1, we treated the cell ines with 1 μM of Compound E (gamma-secretase inhibitor XXI, Calbiochem, San Diego, Calif.) or DMSO (control). The percentage proliferation was calculated by comparing the increase of the number of viable cells from treated cells to the increase of the number of viable cells treated with DMSO and electroporated with a control siRNA, and this for a proliferation period of 3 days.
(§2) Analysis of CD1a, CD3, CD4 and CD8 expression and cell cycle analysis was performed on 0.3-1×10^6 cells 6 days after the first electroporation with siRNA. We used the PE/CD1a, and the TriTEST CD4 FITC/CD8 PE/CD3 PerCP Reagent kit (Becton Dickinson, San Jose, Calif.) and the CycleTEST™ PLUS DNA Reagent Kit (Becton Dickinson). After staining, the cells were detected on a FACSCanto Flow Cytometer (Becton Dickinson) and the data were analyzed with the BD FACSDiva software (Becton Dickinson). Unstained cells and cells treated with ERBB4 siRNA were used as controls. Cell sorting was performed after staining of the cells with the TriTEST CD4/CD8/CD3 kit. Cells were separated into two fractions (differentiated and undifferentiated) using the FACSVantage SE system (Becton Dickinson).
(§3) Cell lines were electroporated every four days with 50-250 nM siRNA. MYB stealth select siRNAs (MYB-HSS106819) were purchased from Invitrogen (Carlsbad, Calif.).

[3] = tested on: RPMI-8402 cells; assay: as above; assay type: cell-based, human; settings: for proliferation: proliferation period of 3 days
Procedure: as §1, §2, §3

[4] = tested on: RPMI-8402; settings: reference 4; cited from earlier work
[5] = tested on: ALL-SIL; settings: reference 4; cited from earlier work
[6] = tested on: MOLT-4; settings: reference 4; cited from earlier work
[7] = tested on: melanoma cell lines; settings: Miele 2006; cited from earlier work
[8] = tested on: melanoma xenografts; settings: Miele 2006; cited from earlier work
[9] = tested on: Ras-transformed fibroblasts; settings: Miele 2006; cited from earlier work
[10] = tested on: MOLT-4 cells; assay: Differentiation of T-ALL cell line after MYB knockdown (FACS of CD1a, CD3, CD4, CD8); assay type: cell-based, human
Procedure: as §1, §2

[11] = tested on: ALL-SIL cells; assay: as above; assay type: cell-based, human
Procedure: as §1, §2

[12] = tested on: RPMI-8402 cells; assay: as above; assay type: cell-based, human
Procedure: as §1, §2

[13] = tested on: MYB; assay: Knockdown of MYB expression by siRNA electroporation, protein blot analysis; assay type: cell-based, human; settings: among MYB stealth select siRNAs
Procedure: FIG. 1: Effect of knockdown of MYB expression on T-ALL cell lines. (a) Protein blot analysis showing that electroporation of three different MYB siRNAs in RPMI-8402 cells causes a decrease of MYB expression, compared with electroporation with no siRNA or control siRNA (ERBB4). […] Control cells were treated with dimethylsulfoxide or a control siRNA. Error bars indicate s.e.m.
DND-41, HSB-2, RPMI-8402, ALL-SIL, MOLT-4, LOUCY, P12-ICHIKAWA, CCRF-CEM (DSMZ, Braunschweig, Germany) were cultured in RPMI-1640 supplemented with 20% fetal calf serum. The number or percentage of viable cells was counted with a Vi-cell XR cell viability analyzer (Beckman Coulter, Fullerton, Calif.). For differentiation experiments, cells were cultured during a period of 6 days and electroporated on the first day and again on the 4th day with 50 nM siRNA. MYB stealth select siRNAs were purchased from Invitrogen (Carlsbad, Calif.). […] Electroporation with a stealth siRNA directed against ERBB4 (Invitrogen, Carlsbad, Calif.), a gene not expressed in these cell lines, served as a control. […] The percentage proliferation was calculated by comparing the increase of the number of viable cells from treated cells to the increase of the number of viable cells treated with DMSO and electroporated with a control siRNA, and this for a proliferation period of 3 days. […]

[14] = siRNA electroporation and/or 1 μM Compound E, vs DMSO and control siRNA
[15] = 50 nM siRNA electroporated day 1 and day 4, 6 days
[16] = flow-sorted cells analysed 10 d later

C[C@H](NC(=O)Cc1cc(F)cc(F)c1)C(=O)N[C@H]1N=C(c2ccccc2)c2ccccc2N(C)C1=O [Compound E, (S, S)-2-[2-(3,5-Difluorophenyl)-acetylamino]-N-(1-methyl-2-oxo-5-phenyl-2,3-dihydro-1H-benzo[e][1,4]diazepin-3-yl)-propionamide]
growth [1]: causes growth arrest | proliferation [2, 14]: inhibition of the proliferation | proliferation [3, 14]: inhibition of the proliferation | proliferation [4]: inhibit the proliferation | proliferation [5]: inhibit the proliferation | sensitivity to GSI treatment [6]: not sensitive

CCCC[C@@H](C=O)NC(=O)[C@H](CC(C)C)NC(=O)[C@H](CC(C)C)NC(=O)OCc1ccccc1 [z-Leu-leu-Nle-CHO] (Cbz-Leu-Leu-[Nle]-aldehyde)
apoptosis [7]: induces apoptosis | apoptosis [8]: induces apoptosis

CCC(C)C(NC(=O)OCc1ccccc1)C(=O)NC(C=O)CC(C)C (stereo not drawn) [cbz-IL-CHO] (Cbz-Ile-Leu-aldehyde; configuration not given here)
antineoplastic activity [9]: Notch-1—dependent antineoplastic activity

MYB siRNA 1: MYB stealth select siRNA (Invitrogen), sequence 5′UAUAGUGUCUCUGAAUGGCUGCGGC (SEQ ID NO:1) with complementary strand SEQ ID NO:2 (chain 2 GCCGCAGCCAUUCAGAGACACUAUA; Invitrogen Stealth Select siRNA, chemistry not given here)
differentiation (changes in expression of CD1a, CD3, CD4 or CD8 cell surface markers) [10, 15]: results in the differentiation | reversibility of differentiation [10, 16]: irreversible | differentiation (changes in expression of CD1a, CD3, CD4 or CD8 cell surface markers) [11, 15]: results in the differentiation | reversibility of differentiation [11, 16]: irreversible | differentiation (changes in expression of CD1a, CD3, CD4 or CD8 cell surface markers) [12, 15]: results in the differentiation | reversibility of differentiation [12, 16]: irreversible | cell cycle ([2]; siRNA electroporation): only a limited effect | proliferation [2, 14]: only a limited effect | viability / cell survival [2, 14]: only a limited effect | cell cycle ([3]; siRNA electroporation): only a limited effect | proliferation [3, 14]: only a limited effect | viability / cell survival [3, 14]: only a limited effect | efficiency of siRNA [13]: most efficient
